In patent US20040076974A1, “Liver necrosis predictive genes” (priority 2002, published 2004):
Values joined by “and” are separate entries in the source; they are usually repeats but may differ in a detail not shown here. Equal entries are not always repeated. Where two headings read alike, the source gives them in different places.

What was measured:
Sprague Dawley rats = settings: rat
In short: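 Toxicity calls (necrosis present or absent at 72 h) and histopathology scores were correlated with tissue gene expression from Crl:CD Sprague Dawley rats. Animals, usually 3 treated with compound by i.p. route and 3 given vehicle, were killed at 6, 24 or 72 h and tissues frozen immediately in liquid nitrogen.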

[1] = test system: toxicologically relevant rat genes (rat CT array); settings: rat, in vivo
Male Sprague-Dawley rats = type: in vivo, rat; settings: intraperitoneal injection, 100 mg/kg

With C[C@@H]1C[C@H]2[C@@H]3CCC4=CC(=O)C=C[C@]4(C)[C@@]3(F)[C@@H](O)C[C@]2(C)[C@@]1(O)C(=O)CO [dexamethasone] the “Score (histopathology liver necrosis severity score)” value (Sprague Dawley rats; Sprague Dawley, in vivo, ip, 8 mg/kg, 72 h) was 1, the “Score (histopathology liver necrosis severity score)” value (Sprague Dawley rats; Sprague Dawley, in vivo, ip, 30 mg/kg, 72 h) was 1 and the “Liver Toxicity Necrosis Classification” value (Sprague Dawley rats; in vivo) was “no”. For the same molecule, the “Liver Necrosis” value (Sprague Dawley rats; in vivo, ip, 8 mg/kg) was “no”, the “Liver Necrosis” value (Sprague Dawley rats; in vivo, ip, 30 mg/kg) was “no” and the “60S ribosomal protein L6 expression” value [1] was 0.8901 and 1.098 (2×) and 0.9353. The “Adenine nucleotide translocator 1 expression” value [1] was 0.9053 and 1.087 and 0.9653 and 0.9797, the “Alpha-2-macroglobulin, sequence 2 expression” value [1] was 0.8488 and 1.069 and 0.9789 and 0.9595 and the Alpha-2-microglobulin expression [1] was 0.9657 and 0.9413. For the same molecule, the Alpha-tubulin expression [1] was 0.8272 and 1.251 and 0.9313 and 1.093, the “Apolipoprotein All expression” value [1] was 0.7858 and 0.4198 and 0.803 and 0.4911 and the “Beta-tubulin, class I expression” value [1] was 0.8776 and 1.559 and 0.9809 and 1.151. For the same molecule, the “Calpactin I heavy chain expression” value [1] was 1.271 and 1.029, the Cofilin expression [1] was 1.006 and 0.9999 and the “Collagen type II expression” value [1] was 0.9739 and 1.08 and 1.31. For the same molecule, the “Cystatin C expression” value [1] was 0.8226 and 0.8364 and 1.078, the “Cytochrome P450 2C11 expression” value [1] was 1.275 and the “Dynamin-1 (D100) expression” value [1] was 1.017 and 1.094 and 0.908 and 0.9644. The “Elongation factor-1 alpha expression” value [1] was 0.8912 and 1.18 and 1.019, the “F1-ATPase beta subunit expression” value [1] was 0.9797 and 1.576 and 1.032 and 1.236 and the “Gamma-actin, cytoplasmic expression” value [1] was 0.9178 and 0.883 and 0.9507. The “Glutathione S-transferase theta-1 expression” value [1] was 0.9901 and 0.9291 and 0.9991 and 0.8886, the Glycine methyltransferase expression [1] was 1.124 and 1.982 and 1.013 and 1.714 and the Heme oxygenase expression [1] was 0.8094 and 0.8311 and 0.7467. The “High affinity IgE receptor gamma chain (FcERIgamma) expression” value [1] was 0.9808 and 0.8055 and 0.8812 and 0.8054, the “IgE binding protein expression” value [1] was 1.039 and 0.992 and 1.096 and the “Insulin-like growth factor I, exon 6 expression” value [1] was 0.8498 and 0.631 and 1.058 and 0.6827. The “Melanoma-associated antigen ME491 expression” value [1] was 1.042 and 1.057 and 0.9592 and 0.993, the “NADP-dependent isocitrate dehydrogenase, cytosolic expression” value [1] was 0.9222 and 0.7332 and 0.8853 and 0.7428 and the NIPK expression [1] was 0.9259 and 0.8897 and 0.7728. The Osteoactivin expression [1] was 0.8926 and 1.029 and 0.8681, the “Phase-1 RCT-39 expression” value [1] was 0.9168 and the “Phase-1 RCT-57 expression” value [1] was 0.9696. The “Phase-1 RCT-78 expression” value [1] was 0.8839, the “Phase-1 RCT-81 expression” value [1] was 0.9341 and the “Phase-1 RCT-107 expression” value [1] was 1.099 and 1.846 and 1.664. For the same molecule, the “Phase-1 RCT-138 expression” value [1] was 0.9192 and 0.9399 and 0.9819, the “Phase-1 RCT-146 expression” value [1] was 0.9664 and the “Phase-1 RCT-149 expression” value [1] was 0.7735. The “Phase-1 RCT-164 expression” value [1] was 0.8597 and 0.7256 and 0.7203, the “Phase-1 RCT-179 expression” value [1] was 0.9599 and 0.8496 and the “Phase-1 RCT-192 expression” value [1] was 0.9855. For the same molecule, the “Phase-1 RCT-295 expression” value [1] was 0.9503, the Stathmin expression [1] was 1.058 and 1.063 and the “Uncoupling protein 2 expression” value [1] was 0.8754 and 1.097 and 0.9302. For the same molecule, the “alpha-1,2-fucosyltrans-ferase expression” value [1] was 0.8942 and 0.8707 and 0.7596.

In the case of S=C=Nc1cccc2ccccc12 [1-naphthylisothiocyanate], the “hepatocellular necrosis by histopathology” value (Male Sprague-Dawley rats) is reported as “induced hepatocellular necrosis”, the “toxicity at the high dose” value (Sprague Dawley rats; high dose of Table 1, liver necrosis at 72 hours) is reported as “produced toxicity” and the “Liver Necrosis” value (Sprague Dawley rats; intraperitoneal, dose 15 mgkg, 72 hours after treatment) is reported as “no”. The “Score (histopathology liver necrosis severity score)” value (Sprague Dawley rats; intraperitoneal, dose 15 mgkg, 72 hours, 1 = not remarkable, 2 and higher increasing severity) was 1, the “Liver Necrosis” value (Sprague Dawley rats; intraperitoneal, dose 60 mgkg, 72 hours after treatment) was “Yes” and the “Score (histopathology liver necrosis severity score)” value (Sprague Dawley rats; intraperitoneal, dose 60 mgkg, 72 hours, 1 = not remarkable, 2 and higher increasing severity) was 2.
